Experimental data as given in ChEMBL document CHEMBL1909559, “Design, synthesis, and biological evaluation of benzodiazepine-based SUMO-specific protease 1 inhibitors” (Bioorg Med Chem Lett, 2011).

The compounds below were run on PC-3 (assay: Cytotoxicity against human PC3 cells).

Row | Compound | IC50
1 | O=CCN1C(=O)C(NC(=O)c2ccc(NC(=O)OCc3ccccc3)cc2)N=C(c2ccccc2)c2ccccc21 (stereo not drawn) | 13 µM
2 | O=CCN1C(=O)C(NC(=O)c2cccc(NC(=O)OCc3ccccc3)c2)N=C(c2ccccc2)c2ccccc21 (stereo not drawn) | 35.7 µM

Each compound was assayed against T1, Sentrin-specific protease 1 (Homo sapiens, UniProt Q9P0U3) (assay: Inhibition of histidine-tagged human SENP1 catalytic domain preincubated for 10 mins by SUMO-CHOP-PLA2 reporter fluorescence assay).
T1 sequence (Q9P0U3 whole entry): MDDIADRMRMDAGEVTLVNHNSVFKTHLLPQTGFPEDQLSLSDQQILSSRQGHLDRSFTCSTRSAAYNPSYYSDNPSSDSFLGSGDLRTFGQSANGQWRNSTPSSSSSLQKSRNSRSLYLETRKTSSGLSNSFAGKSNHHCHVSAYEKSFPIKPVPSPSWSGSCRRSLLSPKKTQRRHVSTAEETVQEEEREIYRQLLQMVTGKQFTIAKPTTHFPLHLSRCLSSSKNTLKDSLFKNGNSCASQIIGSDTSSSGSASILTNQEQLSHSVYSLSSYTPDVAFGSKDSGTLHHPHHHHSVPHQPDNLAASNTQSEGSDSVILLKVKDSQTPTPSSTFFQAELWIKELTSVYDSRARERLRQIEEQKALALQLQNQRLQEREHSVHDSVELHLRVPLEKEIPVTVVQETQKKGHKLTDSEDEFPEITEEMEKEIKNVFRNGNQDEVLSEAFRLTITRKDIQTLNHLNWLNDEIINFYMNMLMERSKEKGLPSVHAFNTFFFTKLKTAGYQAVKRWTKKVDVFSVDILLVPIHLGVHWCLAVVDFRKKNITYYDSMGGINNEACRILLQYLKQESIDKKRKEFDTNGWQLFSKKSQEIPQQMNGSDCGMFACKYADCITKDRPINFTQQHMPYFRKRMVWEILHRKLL

Row | Compound | IC50
3 | CC(=O)Nc1cccc(C(=O)NC2N=C(c3ccccc3)c3ccccc3N(CC=O)C2=O)c1 (stereo not drawn) | > 100 µM
4 | CC(C)(C)OC(=O)Nc1ccc(C(=O)NC2N=C(c3ccccc3)c3ccccc3N(CC=O)C2=O)cc1 (stereo not drawn) | > 100 µM
5 | CC(C)(C)OC(=O)Nc1cccc(C(=O)NC2N=C(c3ccccc3)c3ccccc3N(CC=O)C2=O)c1 (stereo not drawn) | > 100 µM
6 | O=CCN1C(=O)C(NC(=O)OCc2ccccc2)N=Cc2ccccc21 (stereo not drawn) | > 100 µM
7 | O=CCCN1C(=O)C(NC(=O)OCc2ccccc2)N=C(c2ccccc2)c2ccccc21 (stereo not drawn) | > 100 µM
8 | O=C(NC1N=C(c2ccccc2)c2ccccc2N(CCO)C1=O)OCc1ccccc1 (stereo not drawn) | > 100 µM
